The text below walks through data of ChEMBL document CHEMBL4196057, “The chemical diversity and structure-based evolution of non-peptide CXCR4 antagonists with diverse therapeutic potential” (Eur J Med Chem, 2018).

For series [1], the target named is T1, C-X-C chemokine receptor type 4 (Homo sapiens, UniProt P61073). The experiment in a line: Antagonist activity at CXCR4 (unknown origin). Format: functional.
The subject of series [2] is Human immunodeficiency virus 1. The experiment in a line: Antiviral activity against HIV1 assessed as inhibition of virus induced cytopathic effect. Format: functional, organism-based.
Series [3] deals with Human immunodeficiency virus 1. The series can be described thus: Antiviral activity against HIV1 R5 infected in human PBMC after 1 hr by ELISA. Conditions: Human immunodeficiency virus 1, R5, PBMC. Type of series: functional, organism-based.
For series [4], the system named is Human immunodeficiency virus 1. The series can be described thus: Antiviral activity against HIV1 3B infected in human PBMC after 1 hr by ELISA. As to conditions: Human immunodeficiency virus 1, 3B. Format: functional, organism-based. (ELISA stands for enzyme-linked immunosorbent assay.)
The test system of series [5] is Human immunodeficiency virus 1. The series can be described thus: Antiviral activity against HIV1 NL4-3 infected in human PBMC after 1 hr by ELISA. Type of series: functional, organism-based. As to conditions: Human immunodeficiency virus 1, NL4-3, PBMC.
Series [6] has as its system Human immunodeficiency virus 1. The experiment in a line: Antiviral activity against HIV1 R5/X4 infected in human PBMC after 1 hr by ELISA. As to conditions: Human immunodeficiency virus 1, R5/X4, PBMC. Format: functional, organism-based.
For series [7], the target named is T1, C-X-C chemokine receptor type 4. The experiment in a line: Inhibition of SDF-1 binding to CXCR4 (unknown origin).
Series [8] shares this target. The experiment in a line: Displacement of [125I]SDF-1 from human CXCR4 expressed in HEK293 cell membranes after 1.5 hrs by Topcount method.
The subject of series [9] is Human immunodeficiency virus 1. The experiment in a line: Antiviral activity against HIV1 3B. Type of series: functional, organism-based. As to conditions: Human immunodeficiency virus 1, 3B.
The subject of series [10] is Human immunodeficiency virus 1. The experiment in a line: Antiviral activity against HIV1 3B infected in human MT4 cells assessed as inhibition of virus induced cytopathic effect after 5 days by MTT assay. Format: functional, organism-based. As to conditions: Human immunodeficiency virus 1, 3B, MT4, 120 h. In general terms: Protection from cytopathic effect is a common read-out in antiviral testing.

The subject of series [11] is Human immunodeficiency virus 1. The series can be described thus: Antiviral activity against HIV1 infected in human PBMC measured at 7 to 10 days post infection by ELISA. Type of series: functional, organism-based. As to conditions: Human immunodeficiency virus 1, PBMC.
Series [12] has as its system Human immunodeficiency virus. The series can be described thus: Antiviral activity against HIV R4. As to conditions: Human immunodeficiency virus 1, R4. Type of series: functional, organism-based.
In series [13] the target is T1, C-X-C chemokine receptor type 4. The series can be described thus: Inhibition of SDF-1 binding to CXCR4 (unknown origin) at 10 uM relative to control.
The target is the same in series [14]. The series can be described thus: Displacement of [125I]SDF-1alpha from CXCR4 in human MT4 cells after 2 hrs by scintillation counting analysis. Type of series: cell-based. On the technique in general: In a radioligand displacement assay an active substance lowers the binding of a labelled ligand.
Series [15] relates to Human immunodeficiency virus 1. The series can be described thus: Antiviral activity against HIV1 3B infected in human MT4 cells assessed as inhibition of virus replication by MTT assay. Conditions: Human immunodeficiency virus 1, 3B. Type of series: functional, organism-based.
Series [16] in a line: Cytotoxicity against human MT4 cells assessed as reduction in cell viability. Format: cell-based.
Series [17] is described as follows: Bioavailability in Wistar rat at 200 mg/ml/kg administered intraduodenal by LC-MS analysis. Format: ADME, organism-based. As to conditions: in vivo.
Series [18] is described as follows: Plasma concentration in Wistar rat at 200 mg/ml/kg administered intraduodenal after 60 mins by LC-MS analysis. Type of series: ADME.

T1 sequence (P61073 whole entry): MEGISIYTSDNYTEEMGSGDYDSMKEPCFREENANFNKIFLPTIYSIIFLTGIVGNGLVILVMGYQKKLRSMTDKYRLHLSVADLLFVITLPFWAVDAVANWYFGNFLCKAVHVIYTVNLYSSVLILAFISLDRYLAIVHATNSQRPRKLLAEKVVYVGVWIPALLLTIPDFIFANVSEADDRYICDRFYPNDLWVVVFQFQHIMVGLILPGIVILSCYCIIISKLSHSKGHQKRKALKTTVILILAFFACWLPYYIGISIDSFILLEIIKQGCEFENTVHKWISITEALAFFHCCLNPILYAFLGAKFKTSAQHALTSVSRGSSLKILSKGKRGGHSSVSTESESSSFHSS

In turn, `CN1CCN(c2cc(N)nc(NCc3ccc(CNCCCNC4CCCCC4)cc3)n2)CC1` showed an IC50 in series [1] of less than 20 nM.

`Nc1cc(N2CCNCC2)nc(NCc2ccc(CNCCCNC3CCCCC3)cc2)n1`: the half-maximal inhibitory concentration (IC50) in series [1] was less than 20 nM.

On to `c1ccc(CNCc2ccc(CN3CCNCCc4cccc(n4)CCNCC3)cc2)nc1`, for which, in series [2], the EC50 amounted to 1 nM.

Consider `Clc1cc(CN2CCCNCCNCCCNCC2)cc(Cl)n1`, for which the IC50 in series [3], in series [4], in series [5] and in series [6] was 1.2 to 26.5 µM in each case.

With `c1ccc(CNCc2ccc(CN3CCNCCCOCCCNCC3)cc2)nc1`, in series [2], the EC50 came to 4 nM.

`Cc1ccsc1CN1CCC2(CC1)CCN(Cc1ccc(C(=O)N(Cc3ncc[nH]3)Cc3ncc[nH]3)cc1)C2` returned an IC50 in [7] of 11 nM.

As to `CC(NC[C@@H]1CCN(CCc2c[nH]c3ccc(-n4cnnc4)cc23)C1)c1ccccc1` (some centres undefined), in series [7], the half-maximal inhibitory concentration (IC50) fell in the range of 7 to 20 nM.

In series [8], `c1ccc2c(NC3CCNCC3)nc(NCc3ccc(CNCCCNC4CCCCC4)cc3)nc2c1` displayed an IC50 of 36.2 nM.

Regarding `c1cc(CN2CCCNCCNCCCNCC2)ccc1CN1CCCNCCNCCCNCC1` [PLERIXAFOR], the 50% effective concentration (EC50) in series [9] is 3 nM.

`CC(C)CN(CCC[C@H](NC(=O)c1ccc(CNCc2ncc[nH]2)cc1)C(=O)N[C@@H](C)c1cccc2ccccc12)CC(C)C`: in [10], the EC50 is 6.7 nM.

Regarding `CC1CCCCN1CCCNCc1ccc(CNCCCN2CCCCC2C)cc1` (centres undefined), the concentration giving a half-maximal response (EC50) in series [10] turned out to be 19.3 nM.

With `CC1CCCCN1CCCNCc1ccc(CN2CCCNCCNCCCNCC2)cc1` (centres undefined), the EC50 in [10] amounted to 43.6 nM.

On to `CC(C)CN(CCCCNC(=O)c1ccc(CN(Cc2ncc[nH]2)Cc2ncc[nH]2)cc1)CC(C)C`, for which a half-maximal effect in [11] (EC50) was put at 3 nM.

In the case of `FC(F)(F)c1ccc(NC(=S)NCCc2ccc3c(n2)NCCC3)cc1`, the IC50 in series [1] is 200 nM; in series [12], 0.2 to 50 µM.

`CCN(CC)CCCC(C)Nc1cc(/C=C/c2ccc([N+](=O)[O-])cc2)nc2cc(OC)ccc12` (centres undefined) yielded an IC50 in series [8] of 2160 nM.

Turning to `CC(C)c1ccccc1NC(=O)NCCc1ccc2c(n1)NCCC2`, the half-maximal inhibitory concentration (IC50) in [1] was 800 nM; in series [12], 0.2 to 50 µM.

In [7], `CN(CCc1ccccc1)C[C@@H]1CCN(CCc2c[nH]c3ccc(-n4cnnc4)cc23)C1` returned a 50% inhibitory concentration (IC50) of 7 to 20 nM.

As to `c1ccc(CNCc2ccc(CN3CCCNCCNCCCNCC3)cc2)nc1`, the EC50 in series [2] amounted to 9 nM.

In the case of `COc1ccc(NC(=O)NCCc2ccc3c(n2)NCCC3)cc1OC`, the concentration for half-maximal inhibition (IC50) was 680 nM in series [1] and 0.2 to 50 µM in series [12].

For the molecule `O=C(NCCc1ccc2c(n1)NCCC2)Nc1ccc(C(F)(F)F)cc1`, the half-maximal inhibitory concentration (IC50) was 600 nM in [1] and 0.2 to 50 µM in [12].

In series [13], `c1ccc(CN2CCC(Nc3nccc(N4CCCCCC4)n3)C2)cc1` (centres undefined) gave an inhibition greater than 50%.

Consider `COc1ccc2[nH]c(CNCc3ccc(CN(CCNCc4ccccn4)CCNCc4ccccn4)cc3)nc2c1`, for which, in [1], the IC50 is 4 to 100 nM.

`CC(C)(NC[C@@H]1CCN(CCc2c[nH]c3ccc(-n4cnnc4)cc23)C1)c1ccccc1` registered a half-inhibitory concentration (IC50) in [7] of 7 to 20 nM.

`c1ccc(CNCCN(CCNCc2ccccn2)Cc2ccc(CNCc3nc4ccccc4[nH]3)cc2)nc1`: the half-inhibitory concentration (IC50) in [1] was 4 to 100 nM.

For `Cn1ccc2c(NC(=O)NCCc3ccc4c(n3)NCCC4)cccc21`, the half-inhibitory concentration (IC50) in [1] was 400 nM; in series [12], 0.2 to 50 µM.

Take `c1cc(CN2CCCNCCNCCCNCC2)ccc1CNCCCN1CCOCC1`: the concentration for a half-maximal effect (EC50) in [10] was determined as 134 nM.

In turn, `CCCN(CCC)CCCCN(C)Cc1ccc(CN(Cc2ncc[nH]2)Cc2nccn2C)cc1` came in with a 50% effective concentration (EC50) in [11] of 0.3 to 1 nM.

For `C1CNCCNCCCNC(C2CNCCCNCCNCCCN2)CNC1` (centres undefined), in series [9], the EC50 was determined as 144 nM.

Molecule `CCCN(CCC)CCCCNCc1ccc(CN(Cc2ncc[nH]2)Cc2ncc[nH]2)cc1` returned a 50% effective concentration (EC50) in series [11] of 2 nM.

`c1ccc(CCNC[C@@H]2CCN(CCc3c[nH]c4ccc(-n5cnnc5)cc34)C2)cc1` registered an IC50 in series [7] of 7 to 20 nM.

`O=C(NCCc1ccc2c(n1)NCCC2)Nc1cccc2ccccc12`: the half-inhibitory concentration (IC50) in series [1] is 600 nM; in series [12], 0.2 to 50 µM.

As for `CC(C)Oc1ccc(-c2ccc3ccn(CC(=O)NCCN(C)C4CCCCC4)c3c2)cc1`, in series [7], the IC50 was less than 1000 nM.

As for `C1CNCCNCCCN(CCCN2CCCNCCNCCCNCC2)CCNC1`, the midpoint of the response in series [9], the EC50, lay at 248 nM.

The molecule `CCCN(CCC)Cc1ccc(NC(=O)c2ccc(CN(Cc3ncc[nH]3)Cc3ncc[nH]3)cc2)cc1` yielded a concentration giving a half-maximal response (EC50) in series [11] of 2 nM.

For `C[C@H](NC(=O)[C@H](CCCNC(=N)N)NC(=O)c1ccc(CNCc2ccccn2)cc1)c1cccc2ccccc12`, in series [14], the IC50 is 13 nM. In series [15], the EC50 amounted to 19.3 nM. Besides, the CC50 in [16] came to 400 µM. In [17], this molecule came in with a bioavailability of 7%. Moreover, the concentration at 1 h in [18] is 30.6 µM.

With `NCCNc1nccc(N2CCCCCC2)n1`, the inhibition in series [13] was greater than 50%.

Usually IC50 stands for the concentration that gives 50% inhibition. Read a low IC50 as higher potency. The EC50 is the concentration giving half of the maximal effect. What is called inhibition is the relative decrease from the control value, in per cent. A word on the CC50: it is the concentration giving 50% cytotoxicity. The term bioavailability denotes dose-corrected exposure relative to a reference, in per cent. A high value points to much systemic uptake.
